Reference: patent publication US20260297136A1, “PEPTIDES WITH LIPOLYTIC, ANTI-LIPOGENIC, ANTIFIBROTIC AND ANTI-INFLAMMATORY ACTIVITY” (FUNDACIÓ HOSPITAL UNIVERSITARI VALL D'HEBRON - INSTITUT DE …, priority 2023, published 2026)

Test system: LX-2 cells
Experiment: Fibrosis in LX-2 cells: Col1A1 mRNA induced by TGFβ1, Example 3
Assay type: cell-based, human
Conditions: 24 h
Description: FIG. 3 Human hepatic stellate cell line LX-2 was treated with vehicle (DMSO) or TGFβ1 (10 ng/ml) in the absence or presence of GP6 (10 or 40 μg/ml) for 24 h. RNA was extracted and mRNA levels of collagen 1A1 (Col1A1) relative to 18S were measured by RTPCR.
Cell culture reagents were from Life Technologies Inc (Invitrogen SA, Barcelona, Spain). HepG2 hepatoblastoma cells (cat. no. HB-8065; ATCC, LGC Standards SLU, Barcelona, Spain) were maintained in Dulbecco's modified Eagle medium (DMEM) supplemented with 10% fetal bovine serum and antibiotics. HepG2 cells were cultured for 5 day in the absence or presence of 30 mM fructose. Cells cultured in 30 mM fructose were daily treated with vehicle, Telmisartan, Semaglutide or GP6. LX-2 human hepatic stellate cells (SCC064) were maintained in DMEM supplemented with 2% fetal bovine serum and antibiotics. […]
Total RNA was extracted from HepG2 and LX-2 cells using TRIzol reagent (Invitrogen SA). […] Results were analyzed using the 7000 Sequence Detection System program (Applied Biosystems, Thermo Fisher Scientific, Barcelona, Spain) (Sex Hormone-Binding Globulin Reduction in Metabolic Disorders May Play a Role in NAFLD Development.Saez-Lopez C, Barbosa-Desongles A, Hernandez C, Dyer R A, Innis S M, Simo R, Selva D M. Endocrinology. 2017 Mar. 1; 158(3):545-559. doi: 10.1210/en.2016-1668).

SMILES: CC[C@@H](C)[C@@H](NC(=O)[C@H](NC(=O)CNC(=O)[C@@H](CCC(=O)O)NC(=O)[C@H]1CCCN1C(=O)[C@@H](CC(=O)O)NC(=O)[C@@H](Cc1c[nH]c2ccccc12)NC(=O)[C@H](NC(=O)[C@@H](CCCNC(=N)N)NC(=O)[C@H](NC(=O)[C@@H](CCC(=O)O)NC(=O)[C@@H](Cc1ccccc1)NC(=O)[C@@H](CO)NC(=O)[C@@H](CO)NC(=O)[C@@H](CO)NC(=O)[C@H](NC(=O)[C@@H](CCCCN)NC(=O)[C@H](N)[C@H](C)O)[C@H](C)O)C(C)C)[C@H](C)O)C(C)C)C(=O)N[C@H](Cc1ccccc1)C(=O)N[C@H](Cc1ccc(O)cc1)C(=O)O [GP6]
- reduction of mRNA levels of collagen 1A1 induced by TGFβ1 (10 μg/ml): 28%
- reduction of mRNA levels of collagen 1A1 induced by TGFβ1 (40 μg/ml): 45%
